Test [1] has as its target T1, Insulin-degrading enzyme (Homo sapiens, UniProt P14735).
T1 sequence (P14735 whole entry): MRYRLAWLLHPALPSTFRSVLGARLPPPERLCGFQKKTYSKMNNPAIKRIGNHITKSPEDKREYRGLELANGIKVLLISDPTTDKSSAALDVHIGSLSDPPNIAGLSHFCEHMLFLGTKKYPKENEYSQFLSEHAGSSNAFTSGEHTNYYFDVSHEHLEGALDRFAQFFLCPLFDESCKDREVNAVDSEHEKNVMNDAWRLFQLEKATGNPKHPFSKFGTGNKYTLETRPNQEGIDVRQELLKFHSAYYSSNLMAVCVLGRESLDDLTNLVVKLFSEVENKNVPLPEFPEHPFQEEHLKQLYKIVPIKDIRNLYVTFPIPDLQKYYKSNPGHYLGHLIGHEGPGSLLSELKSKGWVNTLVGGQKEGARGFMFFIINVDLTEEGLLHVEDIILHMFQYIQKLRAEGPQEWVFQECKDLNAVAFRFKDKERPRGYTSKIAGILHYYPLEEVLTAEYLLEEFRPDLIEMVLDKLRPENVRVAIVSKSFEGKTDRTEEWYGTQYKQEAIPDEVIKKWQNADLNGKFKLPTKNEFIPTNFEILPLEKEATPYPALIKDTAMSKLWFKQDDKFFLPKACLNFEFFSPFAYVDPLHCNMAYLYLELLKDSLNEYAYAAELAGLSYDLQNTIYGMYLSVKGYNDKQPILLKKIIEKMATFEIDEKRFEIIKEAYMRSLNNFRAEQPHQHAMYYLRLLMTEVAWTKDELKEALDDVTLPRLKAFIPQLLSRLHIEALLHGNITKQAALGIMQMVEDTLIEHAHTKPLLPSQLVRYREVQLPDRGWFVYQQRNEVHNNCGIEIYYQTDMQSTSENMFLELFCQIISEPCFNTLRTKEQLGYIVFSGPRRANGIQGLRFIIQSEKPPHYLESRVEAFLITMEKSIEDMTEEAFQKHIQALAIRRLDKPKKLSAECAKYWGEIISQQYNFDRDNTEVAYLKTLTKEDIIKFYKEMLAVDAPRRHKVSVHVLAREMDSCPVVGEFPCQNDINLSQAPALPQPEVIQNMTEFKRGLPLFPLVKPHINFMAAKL
Briefly: recombinant IDE activation, cell-free – biochemical, fluorescence polarization, counter-screen for IDE activator project, dose response (AID 588681). (Fluorescence polarisation rises when a labelled molecule tumbles more slowly, as on binding a larger partner.)

For test [2], the target named is T1, Insulin-degrading enzyme. Briefly: cellular IDE activation of Abeta substrate cleavage – fluorescence polarization, HEK cells, dose response (AID 588439). The test is classed as functional, cell-based.
The test system of test [3] is HEK293. Briefly: membrane integrity loss in HEK cells – cell-based, fluorescence, cytotoxicity control for IDE activator project, dose response (AID 588440).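 Note: cytotoxicity by LDH release measuring loss of membrane integrity.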 Format: functional. To be noted: Homo sapiens.
Test [4] relates to HEK293. In words: optical interference in Abeta FP readout, dose response, artefact control for IDE activator project, biochemical, fluorescence polarization (AID 588442). The test is classed as functional, cell-based. The conditions noted are these: Homo sapiens.
Test [5] has as its target Beta-2 adrenergic receptor (Homo sapiens, UniProt P07550). In words: ADRB2 activation measured by internalization – cell-based, FAP fluorogen, flow cytometry, cherry pick 1, dose response (AID 588763). Format: functional. In general terms: In flow cytometry, cells or beads pass a laser one at a time.
Test [6] can be described thus: NIH-3T3 fibroblast cytotoxicity, dose response, cytotoxicity control, cell-based, fluorescence, Alamar Blue, secondary assay (AID 2327).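 Note: NIH-3T3 mouse fibroblasts cultured with fluconazole at 8 µg/mL.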 Format: functional. (In general: Resazurin is reduced to fluorescent resorufin, in cell work by metabolically active cells.)
Test [7] in a line: luciferase reporter signal suppression in cells – H4 neuroglioma cells, luminescence, dose response (AID 1990). The test is classed as functional, cell-based.
Test [8] is described as follows: Luminescence Cell-Based Dose Response HTS to Identify Inhibitors of 5'UTR Stem-Loop Driven Prion Protein mRNA Translation in H4 Neuroglioblastoma Cells. [Related pubchem assays: 1827 (Project Summary), 1813 (Primary HTS)]. The test is classed as functional.
Test [9] in a line: alpha-synuclein stem-loop luciferase translation blockers – H4 neuroglioma cells, luminescence, confirmation (AID 1988). Format: functional, cell-based.
The nature of test [10]: fluconazole-exposed Candida albicans growth modulators – fluorescence, retest, confirmation (AID 2467). Format: functional, cell-based.
In test [11] the target is Serine/threonine-protein phosphatase (Candida dubliniensis (strain CD36 / CBS 7987 / NCPF 3949 / NRRLY-17841) (Yeast), UniProt B9W6M3). In words: blockers of CaCl2-induced CDRE-lacZ signaling – S. cerevisiae, luminescence, secondary, dose response (AID 2388).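 Note: yeast reporter cells carrying a calcineurin-responsive lacZ construct stimulated with calcium chloride; luminescent beta-galactosidase reporter signal in whole cells rather than isolated phosphatase activity; potency for inhibition where a drop in reporter signal means calcineurin blockade.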 The test is classed as functional, cell-based.
The subject of the next test is INS1. Briefly: INS-1E survival protection against cytokine death – cell-based, luminescence, retest, dose response (AID 449756).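 Note: cell death triggered by IL-1 beta plus TNF-alpha plus IFN-gamma mixture; protective hits raise ATP signal compared with cytokine alone wells.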 The test is classed as functional. To be noted: Rattus norvegicus.
For test [12], the target named is ATP-dependent molecular chaperone HSP82 (Candida albicans (strain WO-1) (Yeast), UniProt C4YTQ8). In words: steroid-induced GRE reporter decrease in yeast – S. cerevisiae, luminescence, Hsp90 inhibitor project, dose response (AID 2400).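 Note: beta-galactosidase luminescence from glucocorticoid response element reporter as proxy for Hsp90 function; inhibitor potency where signal loss means Hsp90 inhibition.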 Format: functional, cell-based.
The subject of test [13] is HEK293. Briefly: cells. To be noted: Homo sapiens. The test is classed as functional, cell-based.
In test [14] the target is Nuclear receptor subfamily 0 group B member 1 (Homo sapiens, UniProt P51843). In words: Luminescence-based cell-based high throughput dose response assay for inhibitors of the orphan nuclear receptor subfamily 0, group B, member 1 (DAX1; NR0B1). [Related pubchem assays (depositor defined):AID504766, AID504790]. The test is classed as functional.
For test [15], the system named is HEK293. Briefly: EBV LMP1 TES2 canonical NF-kB signalling blockers – cell-based, HEK293, luciferase, cherry-pick, dose response (AID 588343). Format: functional. To be noted: Homo sapiens.
Test [16] in a line: reduction of Shn3 3'UTR-driven luciferase in osteoblasts – cell-based, Clone20 osteoblasts, firefly luciferase, cherry-picked, dose response (AID 624132).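 Note: firefly luciferase luminescence from reporter carrying the Shn3 3'UTR in osteoblasts.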 Format: functional.
The nature of test [17]: loss of viability in HepG2 cells – cell-based, CellTiter-Glo, cherry-picked, cytotoxicity control for Shn3 inhibitor project, dose response (AID 624134). Format: functional.
A short description of test [18]: non-specific 3'UTR reporter inhibition in Clone20-Shn3RL – cell-based, Renilla luciferase, cherry-picked, counter-screen for Shn3 inhibitor project, dose response (AID 624133). Format: functional.

Activity calls are given as the source filed them. Where only a bound is given, the exact number is not on record here.

Chain of Beta-2 adrenergic receptor (P07550 whole entry): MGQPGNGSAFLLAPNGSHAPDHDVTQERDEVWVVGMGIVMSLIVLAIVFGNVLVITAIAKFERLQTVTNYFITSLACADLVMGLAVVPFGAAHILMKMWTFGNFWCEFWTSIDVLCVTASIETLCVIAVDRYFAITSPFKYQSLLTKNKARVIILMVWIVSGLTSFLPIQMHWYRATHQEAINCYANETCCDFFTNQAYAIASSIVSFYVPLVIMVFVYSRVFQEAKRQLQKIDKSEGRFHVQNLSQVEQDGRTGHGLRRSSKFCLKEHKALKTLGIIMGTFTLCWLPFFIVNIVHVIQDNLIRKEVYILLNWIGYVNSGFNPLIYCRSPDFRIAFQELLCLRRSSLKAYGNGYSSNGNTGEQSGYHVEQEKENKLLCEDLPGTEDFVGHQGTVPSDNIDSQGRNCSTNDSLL
Chain of ATP-dependent molecular chaperone HSP82 (C4YTQ8 whole entry): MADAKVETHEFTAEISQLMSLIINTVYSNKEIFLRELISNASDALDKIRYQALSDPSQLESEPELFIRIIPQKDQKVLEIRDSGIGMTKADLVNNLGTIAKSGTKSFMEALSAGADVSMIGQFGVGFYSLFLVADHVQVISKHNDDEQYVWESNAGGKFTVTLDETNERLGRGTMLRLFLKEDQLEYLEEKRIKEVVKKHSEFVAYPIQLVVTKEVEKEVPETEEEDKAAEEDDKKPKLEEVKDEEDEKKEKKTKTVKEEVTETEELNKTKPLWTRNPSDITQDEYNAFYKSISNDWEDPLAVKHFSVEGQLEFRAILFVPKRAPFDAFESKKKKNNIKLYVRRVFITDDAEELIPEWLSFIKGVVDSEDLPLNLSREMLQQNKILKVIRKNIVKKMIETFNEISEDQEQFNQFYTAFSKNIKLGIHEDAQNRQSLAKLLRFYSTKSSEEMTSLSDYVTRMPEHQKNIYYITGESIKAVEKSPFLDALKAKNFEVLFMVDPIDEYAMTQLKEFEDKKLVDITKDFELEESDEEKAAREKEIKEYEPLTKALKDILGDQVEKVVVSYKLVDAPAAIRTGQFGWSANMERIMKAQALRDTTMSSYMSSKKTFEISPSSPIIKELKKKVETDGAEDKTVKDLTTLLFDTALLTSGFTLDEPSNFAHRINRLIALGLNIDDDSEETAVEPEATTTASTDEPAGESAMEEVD
Chain of Serine/threonine-protein phosphatase (B9W6M3 whole entry): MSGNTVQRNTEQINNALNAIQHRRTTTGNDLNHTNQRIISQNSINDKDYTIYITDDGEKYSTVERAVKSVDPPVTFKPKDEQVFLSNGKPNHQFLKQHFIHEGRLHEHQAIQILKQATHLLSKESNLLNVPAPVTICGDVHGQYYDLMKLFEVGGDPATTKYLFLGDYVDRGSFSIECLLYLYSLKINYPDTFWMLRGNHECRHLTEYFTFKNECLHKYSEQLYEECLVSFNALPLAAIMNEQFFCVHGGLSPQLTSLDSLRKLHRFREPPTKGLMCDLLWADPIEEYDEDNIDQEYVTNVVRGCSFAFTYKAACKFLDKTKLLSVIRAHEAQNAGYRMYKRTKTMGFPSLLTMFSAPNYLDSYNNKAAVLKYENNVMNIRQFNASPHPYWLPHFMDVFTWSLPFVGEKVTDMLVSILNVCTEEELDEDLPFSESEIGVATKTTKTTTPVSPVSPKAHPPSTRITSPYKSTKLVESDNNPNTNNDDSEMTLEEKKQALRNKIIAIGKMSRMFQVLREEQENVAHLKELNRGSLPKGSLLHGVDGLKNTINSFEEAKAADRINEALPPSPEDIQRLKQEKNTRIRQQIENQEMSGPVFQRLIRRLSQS
Chain of Nuclear receptor subfamily 0 group B member 1 (P51843 whole entry): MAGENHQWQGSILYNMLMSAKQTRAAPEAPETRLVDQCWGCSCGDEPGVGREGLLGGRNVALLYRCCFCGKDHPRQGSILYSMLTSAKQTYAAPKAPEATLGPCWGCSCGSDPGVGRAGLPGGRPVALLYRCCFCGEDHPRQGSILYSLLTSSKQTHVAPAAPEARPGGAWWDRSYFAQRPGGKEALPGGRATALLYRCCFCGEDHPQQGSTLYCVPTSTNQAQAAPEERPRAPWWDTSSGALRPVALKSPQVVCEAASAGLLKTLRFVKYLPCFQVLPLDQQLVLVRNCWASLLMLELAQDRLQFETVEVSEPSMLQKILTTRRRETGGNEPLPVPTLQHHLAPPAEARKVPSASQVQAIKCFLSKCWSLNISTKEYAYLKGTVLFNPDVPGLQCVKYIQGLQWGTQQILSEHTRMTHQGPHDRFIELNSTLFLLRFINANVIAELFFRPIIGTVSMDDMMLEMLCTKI

For orientation: EC50 means the midpoint of the concentration-response curve. What is called IC50 is the concentration at which inhibition is half-maximal. For `O=C(COc1cccc2cccnc12)Nc1cccc(S(=O)(=O)N2CCCC2)c1`, the EC50 at Insulin-degrading enzyme [1] is > 54.7 µM (inactive); on Insulin-degrading enzyme [2], > 54.7 µM (inactive); in the test with HEK293 [4], > 55.9 µM (inactive). In the test on HEK293 [3], the IC50 was > 89.2 µM (inactive).
Consider `Cc1ccc(N(C)S(=O)(=O)c2cc(-c3cnc(C4CC4)o3)ccc2C)cc1`, for which, in [5], the EC50 was 2.46 µM (active).
The AC50 is the midpoint of the concentration-response curve, whichever way the signal moves. In the case of `C/C(=N\NC(=O)c1cc(C2CC2)nc2ccccc12)c1ccc(O)cc1O`, the EC50 in test [6] was 12.9 µM (inconclusive); in test [7] it was 11.7 µM (active); in [8] it was 11.4 µM (active); in test [9], 5.57 µM (inconclusive); in test [10], 2.46 µM (active); in [11], > 180 µM (inactive). Moreover, in [12], the EC50 is > 160 µM (inactive). Besides, the AC50 in the test with INS1 was 1.01 µM (active).
With `CCCCNC(=O)Nc1nc2ccccc2s1`, the IC50 (in the test with HEK293 [13]; in test [14]) was > 67.5 µM (inactive) throughout.
Turning to `Cc1ccccc1C(=O)NC(=S)Nc1ccc(N2CCN(C(=O)c3ccccc3)CC2)cc1`, the AC50 was 1.7 µM (active) in the test on HEK293 [15], 1.88 µM (active) in [16], 51.5 µM (active) in test [17] and 7.72 µM (active) in [18].

The record behind these values is ChEMBL document CHEMBL1201862, “PubChem BioAssay data set” (2004).
